Here are results for 2 molecules from patent US8450314B2, “Pyrimidopyridazine derivatives useful as P38 MAPK inhibitors” (Chiesi Farmaceutici S.p.A., priority 2009, dated 2013).

The assay deals with T1, p38α (Homo sapiens, UniProt Q16539).
T1 construct: purchased Calbiochem 559324; host or cells: E. coli
Nature of the assay: p38 Kinase Assay (ATF-2 phosphorylation ELISA). Format: biochemical. Particulars: human recombinant p38 activated with MKK6; 2 h preincubation; ATP 250 μM; 1% DMSO; read-out: p38α inhibition. How it is done:
Human recombinant p38 enzyme expressed in E. coli and activated by incubation with MKK6 enzyme (Calbiochem #559324) is used as source of enzyme activity.
The assay is carried in high binding, clear, flat bottom 96 well assay plates which have been coated with recombinant ATF-2 (Biosource #PHF0043). Test compounds are incubated with p38 kinase for 2 h prior to initiating the kinase assay by the addition of ATP to obtain an assay concentration of 250 μM. Phosphorylation of ATF-2 is detected and quantified using an ELISA. This consists of sequential incubation in the presence of anti-phospho-ATF2, biotinylated anti-IgG and streptavidin-HRP. Incubation with an HRP chromogenic substrate (TMB) results in absorbance that is proportional to the amount of phosphorylated substrate produced. Absorbance is detected using a multiwell plate reader.
Compounds are diluted in DMSO prior to addition to assay buffer, the final DMSO concentration in the assay being 1%.
The IC50 is defined as the concentration at which a given compound achieves 50% inhibition of control.
(In general: An ELISA detects its analyte on a solid surface through an enzyme-linked reagent.)

T1 sequence (Q16539 whole entry): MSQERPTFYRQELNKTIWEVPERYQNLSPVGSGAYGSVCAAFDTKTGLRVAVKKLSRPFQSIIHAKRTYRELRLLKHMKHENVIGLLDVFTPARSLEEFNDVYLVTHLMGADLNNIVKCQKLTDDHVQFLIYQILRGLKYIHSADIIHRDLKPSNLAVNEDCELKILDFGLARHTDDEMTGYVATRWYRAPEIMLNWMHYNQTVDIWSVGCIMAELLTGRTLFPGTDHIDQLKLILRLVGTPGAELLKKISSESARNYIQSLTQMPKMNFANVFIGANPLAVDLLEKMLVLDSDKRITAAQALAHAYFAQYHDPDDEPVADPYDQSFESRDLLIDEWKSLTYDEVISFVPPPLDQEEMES

For the molecule `NC(=O)C(c1ccc(Sc2ccccc2CNC(=O)c2cc(F)cc(N3CCOCC3)c2)nn1)c1c(Cl)cccc1Cl` (centres unmarked) [Example 1, N-[2-({6-[2-Amino-1-(2,6-dichlorophenyl)-2-oxoethyl]pyridazin-3-yl}sulfanyl)benzyl]-3-fluoro-5-(morpholin-4-yl)benzamide], the IC50 was below 10 nM.

`O=C(NCc1ccccc1Sc1ccc2c(-c3c(Cl)cccc3Cl)c(=O)ncn2n1)c1cc(F)cc(N2CCOCC2)c1` [Example 2, N-(2-{[5-(2,6-Dichlorophenyl)-6-oxo-6H-pyrimido[1,6-b]pyridazin-2-yl]sulfanyl}benzyl)-3-fluoro-5-(morpholin-4-yl)benzamide]: the IC50 is below 100 nM.
